Data published in patent US20230088528A1, “USE OF LIPID IN PREPARATION OF NUCLEIC ACID DELIVERY REAGENT AND RELATED PRODUCT THEREOF” (INSTITUTE OF BASIC MEDICAL SCIENCES CHINESE ACADEMY OF …, priority 2019, published 2023).

What was measured:
[1] = In vivo delivery of lipid-nucleic acid mixture (PGY-sRNA-26) by gavage, relative intake in blood and tissues by RT-qPCR; parameters: species or system C57BL/6 male mice; conditions: for oral delivery of sRNA single-chain nucleic acid into the blood, and lung, kidney, spleen, heart, and intestinal tissue of mice: 100 μg lipid:1 nmol PGY-sRNA-26 per mouse, 12 hrs after gavage, vs free intake group; for number of organs into which nucleic acid is significantly delivered: among the 6 organs in the experiments
Description: The concentration of a lipid solution in chloroform was 10 mg/ml (stock solution), and grouping was performed according to the lipid compound number.
(§1) 1 nmol of small RNA (as shown in Table 2) was dissolved in 400 μl of DEPC-treated water in a glass tube, and 10 μl of a corresponding lipid stock solution was added, to give a system containing 100 μg of lipid. The system was well mixed, heated for 15 min in a water bath at 90° C., and then naturally cooled, to obtain a lipid-nucleic acid mixture of the lipid and small RNA.
(§2) The C57BL/6 male mice used in the experiment were purchased from Beijing Vital River Laboratory Animal Technology Co., Ltd., about 6 weeks old, and weighed 20-24 g. They were kept in an SPF animal room of the Animal Center of the Institute of Basic Medical Sciences, Chinese Academy of Medical Sciences. The mice were fasted for 12 hrs before gavage.
(§3) The lipid-nucleic acid mixture was prepared following the method as described in Example 2. The prepared lipid-nucleic acid mixture was orally administered at a dose of 100 μg lipid:1 nmol single-stranded small RNA PGY-sRNA-26 per mouse.
1) Blank group: Mice (n=4) were given 500 μl of normal saline by gavage, and this group served as a blank control group;
2) Free intake group: Mice (n=4) were given sRNA solution (1 nmol/animal, 500 μl) by direct gavage, and this group served as a negative control group;
3) Lipid treatment group: Mice (n=4) were given 500 μl of the lipid-nucleic acid mixture prepared in step 2 by gavage.
12 hrs after gavage in each group of mice, 500 μl of blood was taken from the eyeball, and 1.5 ml of Trizol Reagent LS (purchased from Invitrogen) was added and mixed well for lysis. The tissue sample was added with 3 ml of Trizol Reagent LS. and homogenized for full lysis, wherein the tissue sample included lung/kidney/spleen/heart/gut. 1 ml of blood or tissue lysate was taken and RNA was extracted according to the following steps.
The blood or tissue lysate was centrifuged at 4° C., and 12,000 rpm for 5 min, the pellet was discarded, and Trizol was transferred to a new centrifuge tube.
Chloroform was added in an amount of 200 μL chloroform/mL Trizol, shaken fully until uniform, and allowed to stand at room temperature for 5 min.
The sample was centrifuged at 4° C., and 12,000 rpm, for 15 min.
The upper aqueous phase was pipetted to another centrifuge tube, and isopropanol was added in an amount of 0.4 mL isopropanol/mL Trizol, mixed well, and allowed to stand at a low temperature for 10-20 min.
The sample was centrifuged at 4° C., and 12,000 rpm, for 15 min, the supernatant was discarded, and the RNA pellet was at the bottom of the tube.
1 mL of 75% ethanol was added, and the centrifuge tube was shaken gently, to suspend the pellet.
The sample was centrifuged at 4° C., and 12,000 rpm, for 10 min, the supernatant was discarded, 1 mL of 75% ethanol was added, and the centrifuge tube was shaken gently, to suspend the pellet.
The sample was centrifuged at 4° C., and 12,000 rpm, for 10 min, the supernatant was discarded, and the sample was air dried at room temperature. The RNA sample was dissolved in 50-100 μL of RNase-free H2O, and the RNA concentration was quantified by determining the OD value.
The sRNA was reversely transcribed into cDNA using a reverse transcription kit (High-Capacity cDNA Reverse Transcription Kits, Applied Biosystems, cat. no. 4368813), following the stem-loop method (see, for example Real-time quantification of microRNAs by stem-loop RT-PCR, Nucleic Acids Res. 2005 Nov. 27; 33(20):e179, incorporated herein by reference). System for reverse transcription: template RNA (200 ng/μL) 10 μL, 10×RT buffer 2.0 μL, 25×dNTP Mix (100 mM) 0.8 μL, U6 RT stem-loop primer 2.0 μL, PGY-sRNA-26 RT stem-loop primer 2.0 μL, MultiScribe™ reverse transcriptase 1.0 μL, RNAase inhibitor 1.0 μL, and nuclease-free water H2O 1.2 μL. […]

[2] = Pharmacokinetic study of lipid-nucleic acid mixture, gavage group, relative amount of PGY-sRNA-26 delivered to organs over time; type: in vivo, C57BL/6 male mice; conditions: sampled at 3, 6, 9, 12, 24 hrs
Description: as §1, §2
as §3, with “administered or injected via the tail vein” for “administered”, “mouse. The oral dose was half that of the tail vein injection.” for “mouse.”
(§4) 1) Blank group: Mice (n=6) were given 500 μl of normal saline by gavage, and this group served as a blank control group;
2) Gavage group: Mice (n=15) were given 200 μl of the lipid-nucleic acid mixture prepared in step 2 by gavage.
(§5) At 3 hrs, 6 hrs, 9 hrs, 12 hrs and 24 hrs after administration in the gavage group and the intravenous injection group, 3 mice were taken and the RNA was extracted from each organ according to the method in Example 3.
(§6) The RNA extracted from each organ was reverse transcribed into cDNA according to the method in Example 3.
(§7) A quantitative PCR amplification reaction was performed according to the method in Example 3.
(§8) 3.5. The Relative Expression Level was Calculated by the 2-ΔCt Method.
(§9) FIGS. 46-49 respectively show the results of delivering single-stranded small RNA PGY-sRNA-26 into different target tissues at various time points by gavage using lipids 93, 94, 96, and 100. FIGS. 50-54 respectively show the results of delivering single-stranded small RNA PGY-sRNA-26 into different target tissues at various time points by injection via the tail vein using lipids 94, 96, 98, 100, and 101.

[3] = Pharmacokinetic study of lipid-nucleic acid mixture, tail vein injection group, relative amount of PGY-sRNA-26 delivered to organs over time; type: in vivo, C57BL/6 male mice; conditions: injection via the tail vein; sampled at 3, 6, 9, 12, 24 hrs
Description: as §1, §2
as §3, with “administered or injected via the tail vein” for “administered”, “mouse. The oral dose was half that of the tail vein injection.” for “mouse.”
as §4
3) Intravenous injection group: Mice (n=15) were given 100 μl of the lipid-nucleic acid mixture prepared in step 2 by injection via the tail vein.
as §5, §6, §7, §8, §9

[4] = significant difference compared to the control, 100 μg lipid:1 nmol PGY-sRNA-26, 12 hrs

In the case of “1-O-octadecyl-2-hydroxy-sn-glycero-3-phosphocholine [Lipid 94]”, the “oral delivery of sRNA single-chain nucleic acid into the blood, and lung, kidney, spleen, heart, and intestinal tissue of mice” value (from here on “oral delivery … and intestinal tissue of mice”) [1] is reported as “can effectively orally deliver”, the “number of organs into which nucleic acid is significantly delivered” value [1] is reported as “two organs” and the “oral delivery of sRNA single-stranded nucleic acid into the kidney tissue of mice” value [1, 4] is reported as “can significantly efficiently orally deliver”. The “oral delivery of sRNA single-stranded nucleic acid into the lung tissue of mice” value [1, 4] was “can significantly efficiently orally deliver”, the “time at which amount of nucleic acid delivered into the brain tissue reaches a maximum value” [2] was 3 h and the “time at which amount of nucleic acid delivered into the gastric tissue reaches a maximum value” [2] was 3 h. The “time at which amount of nucleic acid delivered into the heart tissue reaches a maximum value” [2] was 3 h, the “time at which amount of nucleic acid delivered into the intestinal tissue reaches a maximum value” [2] was 3 h and the “time at which amount of nucleic acid delivered into the kidney tissue reaches a maximum value” [2] was 9 h. For the same compound, the “time at which amount of nucleic acid delivered into the lung tissue reaches a maximum value” [2] was 9 h, the “time at which amount of nucleic acid delivered into the spleen tissue reaches a maximum value” [2] was 3 h and the “time at which amount of nucleic acid delivered into the brain tissue reaches a maximum value” [3] was 6 h. The “time at which amount of nucleic acid delivered into the gastric tissue reaches a maximum value” [3] was 3 h, the “time at which amount of nucleic acid delivered into the intestinal tissue reaches a maximum value” [3] was 6 h and the “time at which amount of nucleic acid delivered into the kidney tissue reaches a maximum value” [3] was 9 h. For the same compound, the “time at which amount of nucleic acid delivered into the spleen tissue reaches a maximum value” [3] was 6 h.

In the case of “1-palmitoyl-2-hydroxy-sn-glycero-3-phosphate (sodium salt) [Lipid 96]”, the “oral delivery … and intestinal tissue of mice” value [1] is reported as “can effectively orally deliver”, the “number of organs into which nucleic acid is significantly delivered” value [1] is reported as “two organs” and the “oral delivery of sRNA single-stranded nucleic acid into the kidney tissue of mice” value [1, 4] is reported as “can significantly efficiently orally deliver”. The “oral delivery of sRNA single-stranded nucleic acid into the spleen tissue of mice” value [1, 4] was “can significantly efficiently orally deliver”, the “time at which amount of nucleic acid delivered into the intestinal tissue reaches a maximum value” [2] was 3 h and the “time at which amount of nucleic acid delivered into the kidney tissue reaches a maximum value” [2] was 3 h. The “time at which amount of nucleic acid delivered into the brain tissue reaches a maximum value” [3] was 6 h, the “time at which amount of nucleic acid delivered into the heart tissue reaches a maximum value” [3] was 9 h and the “time at which amount of nucleic acid delivered into the intestinal tissue reaches a maximum value” [3] was 6 h. The “time at which amount of nucleic acid delivered into the kidney tissue reaches a maximum value” [3] was 3 h, the “time at which amount of nucleic acid delivered into the liver tissue reaches a maximum value” [3] was 3 h and the “time at which amount of nucleic acid delivered into the lung tissue reaches a maximum value” [3] was 6 h.

In the case of `CCCCCCCCCCCCCCCCCCCC(=O)OCC(COC(=O)CCCCCCCCCCCCCCCCCCC)OC(=O)CCCCCCCCCCCCCCCCCCC` [Lipid 112, Trieicosanoin], the “oral delivery … and intestinal tissue of mice” value [1] is reported as “can effectively orally deliver”.

For `CCCCCCCCCCCCCCCC(=O)OC[C@@H](O)COP(=O)([O-])OCC[N+](C)(C)C` [Lipid 113, 1-palmitoyl-2-hydroxy-sn-glycerol-3-phosphatidylcholine], the “oral delivery … and intestinal tissue of mice” value [1] was “can effectively orally deliver”.

For `CCCCCCCC/C=C\CCCCCCCC(=O)OCC(O)COP(=O)(O)OCCN` (stereo not shown) [Lipid 116, 1-(9Z-octadecenoyl)-sn-glycero-3-phosphoethanolamine], the “oral delivery … and intestinal tissue of mice” value [1] was “can effectively orally deliver”.

With `CCCCCCCC/C=C\CCCCCCCC(=O)OC[C@H](COP(=O)([O-])OCC[N+](C)(C)C)OC(=O)CCCCCCC/C=C\CCCCCCCC` [Lipid 117, 1,2-bis-(9Z-octadecenoyl)-sn-glycero-3-phosphocholine] the “oral delivery … and intestinal tissue of mice” value [1] was “can effectively orally deliver”.

In the case of `CCCCCCCC/C=C\CCCCCCCC(=O)O[C@H](COC(=O)CCCCCCCCCCCCCCC)COP(=O)([O-])OCC[N+](C)(C)C` [Lipid 118, 1-palmitoyl-2-oleoyl-sn-glycero-3-phosphatidylcholine], the “oral delivery … and intestinal tissue of mice” value [1] is reported as “can effectively orally deliver”.

For `CCCCCCCCCCCCCCCC(=O)OCC(COP(=O)([O-])OCC[N+](C)(C)C)OC(=O)CCCCCCCCCCCCCCC` (stereo not shown) [Lipid 119, 1,2-dihexadecanoyl-sn-glycero-3-phosphocholine], the “oral delivery … and intestinal tissue of mice” value [1] was “can effectively orally deliver”.

With “N-palmitoleoyl-D-erythro-sphingosylphosphocholine [Lipid 103]” the “oral delivery … and intestinal tissue of mice” value [1] was “can effectively orally deliver” and the “oral delivery of sRNA single-stranded nucleic acid into the lung tissue of mice” value [1, 4] was “can significantly efficiently orally deliver”.

For “N-palmitoyl-D-erythro-sphingosylphosphocholine [Lipid 105]”, the “oral delivery … and intestinal tissue of mice” value [1] was “can effectively orally deliver” and the “oral delivery of sRNA single-stranded nucleic acid into the blood of mice” value [1, 4] was “can significantly efficiently orally deliver”.

With “N-stearoyl-D-erythro-sphingosylphosphocholine [Lipid 104]” the “oral delivery … and intestinal tissue of mice” value [1] was “can effectively orally deliver” and the “oral delivery of sRNA single-stranded nucleic acid into the blood of mice” value [1, 4] was “can significantly efficiently orally deliver”.
